Data taken from patent US6387943B1, “Vancoresmycin, a process for its production and its use as a pharmaceutical” (Aventis Pharma Deutschland GmbH, priority 1998, dated 2002).
Converted amounts (≈) assume the structure as drawn.

Key:
[1] = tested on: Ent. faecium P-2; experiment: Minimum inhibitory concentration (MIC); type: cell-based; conditions: Enterococcus faecium, P2
[2] = tested on: Ent. faecalis D 23241; experiment: Minimum inhibitory concentration (MIC); type: cell-based; conditions: Enterococcus faecalis, D23241
[3] = Solubility (physico-chemical properties); type: physicochemical; conditions: solvents in which soluble
[4] = tested on: S. warneri 6563 II (2); experiment: Minimum inhibitory concentration (MIC); type: cell-based; conditions: Staphylococcus warneri
[5] = tested on: Ent. faecalis D 7F; experiment: Minimum inhibitory concentration (MIC); type: cell-based; conditions: Enterococcus faecalis, D7F
[6] = tested on: Ent. faecium P-1; experiment: Minimum inhibitory concentration (MIC); type: cell-based; conditions: Enterococcus faecium, P1
[7] = tested on: S. epidermidis 825; experiment: Minimum inhibitory concentration (MIC); type: cell-based; conditions: Staphylococcus epidermidis
[8] = tested on: Ent. faecium 5601 (H); experiment: Minimum inhibitory concentration (MIC); type: cell-based; conditions: Enterococcus faecium
[9] = tested on: S. aureus Brussel 4115; experiment: Minimum inhibitory concentration (MIC); type: cell-based; conditions: Staphylococcus aureus, BRUSSEL4115
[10] = tested on: E. coli super sen. 2231; experiment: Minimum inhibitory concentration (MIC); type: cell-based; conditions: Escherichia coli
[11] = tested on: Ent. hirae 55; experiment: Minimum inhibitory concentration (MIC); type: cell-based; conditions: Enterococcus hirae
[12] = tested on: Ent. faecalis D 21777; experiment: Minimum inhibitory concentration (MIC); type: cell-based; conditions: Enterococcus faecalis, D21777
[13] = tested on: S. aureus 20424; experiment: Minimum inhibitory concentration (MIC); type: cell-based; conditions: Staphylococcus aureus
[14] = tested on: S. aureus Wein 12; experiment: Minimum inhibitory concentration (MIC); type: cell-based; conditions: Staphylococcus aureus, WEIN12
[15] = tested on: Ent. faecalis D 756; experiment: Minimum inhibitory concentration (MIC); type: cell-based; conditions: Enterococcus faecalis, D756
[16] = tested on: S. epidermidis 5747 IW; experiment: Minimum inhibitory concentration (MIC); type: cell-based; conditions: Staphylococcus epidermidis
[17] = tested on: S. aureus 3066; experiment: Minimum inhibitory concentration (MIC); type: cell-based; conditions: Staphylococcus aureus; S. aureus 3066 (resistant strain to methicillin)
[18] = tested on: Pseudomonas aeruginosa M35; experiment: Minimum inhibitory concentration (MIC); type: cell-based
[19] = tested on: S. aureus SG511; experiment: Minimum inhibitory concentration (MIC); type: cell-based; conditions: Staphylococcus aureus
[20] = tested on: S. aureus 20240; experiment: Minimum inhibitory concentration (MIC); type: cell-based; conditions: Staphylococcus aureus
[21] = tested on: S. epidermidis 607; experiment: Minimum inhibitory concentration (MIC); type: cell-based; conditions: Staphylococcus epidermidis
[22] = tested on: Escherichia coli 9632; experiment: Minimum inhibitory concentration (MIC); type: cell-based
[23] = tested on: S. aureus Wein 11; experiment: Minimum inhibitory concentration (MIC); type: cell-based; conditions: Staphylococcus aureus, WEIN11
[24] = tested on: S. aureus Chantot 31153; experiment: Minimum inhibitory concentration (MIC); type: cell-based; conditions: Staphylococcus aureus, CHANTOT31153
[25] = tested on: Enterococcus faecalis ATCC 29212; experiment: Minimum inhibitory concentration (MIC); type: cell-based; conditions: ATCC29212
[26] = tested on: S. haemolyticus 809; experiment: Minimum inhibitory concentration (MIC); type: cell-based; conditions: Staphylococcus haemolyticus
[27] = tested on: Ent. faecium VR-1; experiment: Minimum inhibitory concentration (MIC); type: cell-based; conditions: Enterococcus faecium, VR1; Ent. faecium VR-1 (resistant to vancomycin)
[28] = tested on: S. epidermidis 823; experiment: Minimum inhibitory concentration (MIC); type: cell-based; conditions: Staphylococcus epidermidis
[29] = tested on: S. aureus MLS-16; experiment: Minimum inhibitory concentration (MIC); type: cell-based; conditions: Staphylococcus aureus, MLS16
[30] = tested on: S. aureus E-710; experiment: Minimum inhibitory concentration (MIC); type: cell-based; conditions: Staphylococcus aureus, E710
[31] = tested on: Ent. faecalis D 26777; experiment: Minimum inhibitory concentration (MIC); type: cell-based; conditions: Enterococcus faecalis, D26777
[32] = tested on: S. aureus E-712; experiment: Minimum inhibitory concentration (MIC); type: cell-based; conditions: Staphylococcus aureus, E712
[33] = tested on: Staphylococcus aureus 209P; experiment: Minimum inhibitory concentration (MIC); type: cell-based
[34] = tested on: Ent. faecium D-65; experiment: Minimum inhibitory concentration (MIC); type: cell-based; conditions: Enterococcus faecium, D65
[35] = tested on: vancomycin- and teicoplanin-resistant strains; experiment: Antibiotic activity against resistant strains; type: cell-based
[36] = tested on: Ent. durans 4939H; experiment: Minimum inhibitory concentration (MIC); type: cell-based; conditions: Enterococcus durans
[37] = tested on: S. aureus 503(Mers); experiment: Minimum inhibitory concentration (MIC); type: cell-based

Question: For `C/C(=C\CC(O)CC(O)CCC(C)C(O)C(C)C(O)CCCC(O)C(C)C(O)/C(C)=C/C(C)C(=O)/C(C)=C/C(O)C(O)CC(O)CC(OC1OC(C)C(O)C(N)C1O)C(C)CCC(O)CC(O)CCC(C)C(O)C(C)C(O)C(C)C)C(=O)C1=C(O)/C(=C/C(C)C)N(C)C1=O` (stereo not shown) [Vancoresmycin], which MIC [1] is on record?
Answer: The MIC was 0.39 µg/mL (≈ 0.29 µM).

Question: And the MIC [2]?
Answer: The MIC was 0.39 µg/mL (≈ 0.29 µM).

Question: And the Solubility [3]?
Answer: The Solubility was “Methanol, DMSO”.

Question: And the MIC [4]?
Answer: Its MIC is 0.1 µg/mL (≈ 0.0744 µM).

Question: And the MIC [5]?
Answer: Its MIC is 0.39 µg/mL (≈ 0.29 µM).

Question: What about the MIC [6] of the same compound?
Answer: The MIC was 0.39 µg/mL (≈ 0.29 µM).

Question: What about the MIC [7] of the same compound?
Answer: Its MIC is 0.1 µg/mL (≈ 0.0744 µM).

Question: And the MIC [8]?
Answer: The MIC was 0.39 µg/mL (≈ 0.29 µM).

Question: And the MIC [9]?
Answer: Its MIC is 0.05 µg/mL (≈ 0.0372 µM).

Question: And the MIC [10]?
Answer: The MIC was greater than 100 µg/mL.

Question: And the MIC [11]?
Answer: Its MIC is 0.39 µg/mL (≈ 0.29 µM).

Question: And the MIC [12]?
Answer: The MIC was 0.39 µg/mL (≈ 0.29 µM).

Question: What about the MIC [13] of the same compound?
Answer: Its MIC is 0.1 µg/mL (≈ 0.0744 µM).

Question: And the MIC [14]?
Answer: The MIC was 0.05 µg/mL (≈ 0.0372 µM).

Question: And the MIC [15]?
Answer: Its MIC is 0.39 µg/mL (≈ 0.29 µM).

Question: What about the MIC [16] of the same compound?
Answer: The MIC was 0.1 µg/mL (≈ 0.0744 µM).

Question: What about the MIC [17] of the same compound?
Answer: The MIC was 0.1 µg/mL (≈ 0.0744 µM).

Question: What about the MIC [18] of the same compound?
Answer: The MIC was greater than 100 µg/mL.

Question: What about the MIC [19] of the same compound?
Answer: The MIC was 0.05 µg/mL (≈ 0.0372 µM).

Question: What about the MIC [20] of the same compound?
Answer: The MIC was 0.05 µg/mL (≈ 0.0372 µM).

Question: And the MIC [21]?
Answer: The MIC was 0.1 µg/mL (≈ 0.0744 µM).

Question: What about the MIC [22] of the same compound?
Answer: The MIC was greater than 100 µg/mL.

Question: What about the MIC [23] of the same compound?
Answer: Its MIC is 0.05 µg/mL (≈ 0.0372 µM).

Question: And the MIC [24]?
Answer: Its MIC is 0.05 µg/mL (≈ 0.0372 µM).

Question: And the MIC [25]?
Answer: The MIC was 0.39 µg/mL (≈ 0.29 µM).

Question: What about the MIC [26] of the same compound?
Answer: Its MIC is 0.05 µg/mL (≈ 0.0372 µM).

Question: What about the MIC [27] of the same compound?
Answer: The MIC was 0.39 µg/mL (≈ 0.29 µM).

Question: What about the MIC [28] of the same compound?
Answer: The MIC was 0.2 µg/mL (≈ 0.149 µM).

Question: What about the MIC [29] of the same compound?
Answer: Its MIC is 0.39 µg/mL (≈ 0.29 µM).

Question: What about the MIC [30] of the same compound?
Answer: Its MIC is 0.1 µg/mL (≈ 0.0744 µM).

Question: What about the MIC [31] of the same compound?
Answer: The MIC was 0.39 µg/mL (≈ 0.29 µM).

Question: What about the MIC [32] of the same compound?
Answer: Its MIC is 0.1 µg/mL (≈ 0.0744 µM).

Question: And the MIC [33]?
Answer: The MIC was 0.05 µg/mL (≈ 0.0372 µM).

Question: What about the MIC [34] of the same compound?
Answer: The MIC was 0.39 µg/mL (≈ 0.29 µM).

Question: What about the antibiotic activity [35] of the same compound?
Answer: Its antibiotic activity is “active”.

Question: What about the MIC [36] of the same compound?
Answer: Its MIC is 0.39 µg/mL (≈ 0.29 µM).

Question: And the MIC [37]?
Answer: Its MIC is 0.025 µg/mL (≈ 0.0186 µM).
